Literature values, collected in patent US20240197774A1, “Synthesis of Antimicrobial PVP-coated Bismuth Nanoparticles” (Board of Regents, The University of Texas System, priority 2021, published 2024).

Tested on: humans
Details: intake for years, considered non-toxic

In the case of `[Bi]` [Bismuth], the Intake is listed as 5 to 20 g/day/kg.
